The results in this text go back to US4528027A, “Acylthio-substituted triazines” (Shell Oil Company, priority 1984, dated 1985).

Molecules are shown by their SMILES. A value given as a limit tells only on which side of the number the result lay.

The first data set can be described thus: Approximate solubility in xylene at room temperature. Type of data set: physicochemical.
Details: not given
For the compound `CCN(SC(=O)OC)c1nc(NC(C)C)nc(SC)n1` [Compound 15, 2-(methylthio)-4-(1-methylethylamino)-6-(N-ethyl-N-((methoxycarbonyl)thio))-1,3,5-triazine], the “Approximate Solubility at Room Temperature, Grams of Compound per 100 Grams of Xylene” value (“Approximate Solubility … per 100 Grams of Xylene” below) is listed as > 150 Grams of Compound per 100 Gram.

As for `CCN(SC(=O)OC)c1nc(Cl)nc(NC(C)C)n1` [Compound 5], the “Approximate Solubility … per 100 Grams of Xylene” value is > 150 Grams of Compound per 100 Gram.

Regarding `CCN(SC(=O)OC)c1nc(Cl)nc(NC(C)(C)C#N)n1` [Compound 1, 2-chloro-4-(1-cyano-1-methylethylamino)-6-(N-ethyl-N-((methoxycarbonyl)thio))-1,3,5-triazine], the “Approximate Solubility … per 100 Grams of Xylene” value is on record as 26 Grams of Compound per 100 Gram.

Turning to `CCN(SC(=O)OC)c1nc(NC(C)C)nc(OC)n1` [Compound 14, 2-methoxy-4-(1-methylethylamino)-6-(N-ethyl-N-((methoxycarbonyl)thio))-1,3,5-triazine], the “Approximate Solubility … per 100 Grams of Xylene” value is > 150 Grams of Compound per 100 Gram.

The data set is the same for the next values; noted with them: xylene, room temperature.
Take `CCNc1nc(Cl)nc(NC(C)(C)C#N)n1` [Compound 1B, 2-chloro-4-(1-cyano-1-methylethylamino)-6-ethylamino-1,3,5-triazine, reference compound]: the “Approximate Solubility … per 100 Grams of Xylene” value is on record as 0.3 Grams of Compound per 100 Gram.

As to `CCNc1nc(NC(C)C)nc(OC)n1` [Compound 14A, 2-methoxy-4-(1-methylethylamino)-6-ethylamino-1,3,5-triazine, reference compound], the “Approximate Solubility … per 100 Grams of Xylene” value is given as 25 Grams of Compound per 100 Gram.
